System: T1, ASNase (L-asparaginase) from Bacillus licheniformis KKU-KH14
T1 construct: gene ansZ
Details: L-asparagine 0.0-0.1 M; standard assay Tris-HCl pH 7.4, 30 min; temperature of the kinetic assay not stated

Km: 50 mM
Structure (SMILES): NC(=O)C[C@H](N)C(=O)O [L-asparagine]

— article PMC6403232, “Production and Anticancer Activity of an L-Asparaginase from Bacillus licheniformis Isolated from the Red Sea, Saudi Arabia” (Scientific Reports, 2019)
